Measurements taken from patent publication US6630338B2, “Removing deacetylase contaminant from cephalosporin C acylase using cationic surfactant” (Fujisawa Pharmaceutical Co., Ltd., priority 1996, dated 2003).

Experiments:
[1] = system: deacetylase; test: Residual contaminant deacetylase activity after addition of surfactant (deacetyl 7-ACA produced from GL7-ACA); assay type: biochemical; conditions: for residual activity (deacetylase): room temperature 16 hours, relative to activity before addition as 100
Protocol: (§1) Mutant CC acylase N-176 producing E. coli JM 109 (PCCN 176-2) FERM BP-3047 was cultured according to the method disclosed in Example 3 of Japanese Patent Unexamined Publication No. 584078 and the cells were harvested by centrifugation. The obtained cell pellets were disrupted with a homogenizer and soluble protein component was extracted with water, which was followed by centrifugation to remove debris, whereby a crude extract solution was obtained.
(§2) Polyethyleneimine was added to the crude extract solution obtained in the above-mentioned (1) to allow precipitation of the nucleic acid, which was followed by centrifugation to recover supernatant. This supernatant was applied to DEAE column equilibrated with phosphate buffer (pH 7.0), washed with water and eluted with 0.2M-NaCl. […] The activities of CC acylase and deacetylase in each sample before and after the addition of the surfactant were measured and the changes thereof were examined. The enzyme activity was calculated by quantitatively determining 7-ACA and deacetyl 7-ACA produced from GL7-ACA as a substrate.

[2] = system: CC acylase; test: Residual CC acylase activity after addition of surfactant (7-ACA produced from GL7-ACA); assay type: biochemical, Pseudomonas; conditions: for residual activity (CC acylase): room temperature 16 hours, relative to activity before addition as 100
Protocol: as §1, §2

[3] = surfactant addition concentration 0.1%
[4] = surfactant addition concentration 0.3%
[5] = surfactant addition concentration 0.5%
[6] = surfactant concentration 0.1-0.3%

CCCCCCCCCCCC[N+](C)(C)C.[Cl-] [Cation BB, dodecyltrimethyl ammonium chloride]
residual activity (deacetylase) [1, 3]: 55 | residual activity (deacetylase) [1, 4]: 45 | residual activity (deacetylase) [1, 5]: 5 | residual activity (CC acylase) [2, 3]: 100 | residual activity (CC acylase) [2, 4]: 100 | residual activity (CC acylase) [2, 5]: 85

alkyl glycine [Nissan Anon LG]
residual activity (deacetylase) [1, 3]: 60 | residual activity (deacetylase) [1, 4]: 50 | residual activity (deacetylase) [1, 5]: 30 | residual activity (CC acylase) [2, 3]: 100 | residual activity (CC acylase) [2, 4]: 100 | residual activity (CC acylase) [2, 5]: 95

alkyl(palm)dimethylbenzyl ammonium chloride [Cation F2-50]
residual activity (deacetylase) [1, 3]: 5 | residual activity (deacetylase) [1, 4]: 1 | residual activity (deacetylase) [1, 5]: 0 | activity of contaminant deacetylase [1, 6]: not more than 5% | removal of deacetylase ([1]; surfactant concentration 0.5%): removed nearly completely | residual activity (CC acylase) [2, 3]: 95 | residual activity (CC acylase) [2, 4]: 92 | residual activity (CC acylase) [2, 5]: 70 | CC acylase residual activity [2, 6]: ≥ 90%

alkyl(palm)trimethyl ammonium chloride [Cation FB]
residual activity (deacetylase) [1, 3]: 55 | residual activity (deacetylase) [1, 4]: 40 | residual activity (deacetylase) [1, 5]: 1 | residual activity (CC acylase) [2, 3]: 100 | residual activity (CC acylase) [2, 4]: 100 | residual activity (CC acylase) [2, 5]: 80

polyoxyethylene octylphenyl ether [Nonion HS-210]
residual activity (deacetylase) [1, 3]: 50 | residual activity (deacetylase) [1, 4]: 50 | residual activity (deacetylase) [1, 5]: 45 | residual activity (CC acylase) [2, 3]: 100 | residual activity (CC acylase) [2, 4]: 100 | residual activity (CC acylase) [2, 5]: 100

polyoxyethylenesorbitan monooleate [Nonion TO-221]
residual activity (deacetylase) [1, 3]: 50 | residual activity (deacetylase) [1, 4]: 50 | residual activity (deacetylase) [1, 5]: 45 | residual activity (CC acylase) [2, 3]: 100 | residual activity (CC acylase) [2, 4]: 100 | residual activity (CC acylase) [2, 5]: 100
